# Assay results as given in ChEMBL document CHEMBL1201861, “Genomics of Drug Sensitity in Cancer screening data, Wellcome Trust Sanger Institute”.
# System: KS-1;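 also: growth inhibition of KS-1 cells, read out with a cell viability assay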
# Assay: cells
# Assay type: functional, cell-based, Homo sapiens
# Details: Homo sapiens, KS-1
# Description: SANGER: Inhibition of human KS-1 cell growth in a cell viability assay.
row,Structure (SMILES),IC50
1,N[C@@H](CSC(c1ccccc1)(c1ccccc1)c1ccccc1)C(=O)O [S-TRITYL-L-CYSTEINE],0.842 µM

# System: IST-MES1;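 also: growth inhibition of IST-MES1 cells, measured with a cell viability assay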
# Assay: cells
# Assay type: functional, cell-based, Homo sapiens
# Details: Homo sapiens, IST-MES1
# Description: SANGER: Inhibition of human IST-MES1 cell growth in a cell viability assay.
row,Structure (SMILES),IC50
1,N[C@@H](CSC(c1ccccc1)(c1ccccc1)c1ccccc1)C(=O)O [S-TRITYL-L-CYSTEINE],> 5.12 µM

# System: no-10;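 also: growth inhibition of no-10 cells, read out with a cell viability assay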
# Assay: cells
# Assay type: functional, cell-based, Homo sapiens
# Details: Homo sapiens
# Description: SANGER: Inhibition of human no-10 cell growth in a cell viability assay.
row,Structure (SMILES),IC50
1,N[C@@H](CSC(c1ccccc1)(c1ccccc1)c1ccccc1)C(=O)O [S-TRITYL-L-CYSTEINE],1.96 µM

# System: GI-1;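 also: growth inhibition of human GI-1 cells, measured with a cell viability readout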
# Assay: cells
# Assay type: functional, cell-based, Homo sapiens
# Details: Homo sapiens, GI-1
# Description: SANGER: Inhibition of human GI-1 cell growth in a cell viability assay.
row,Structure (SMILES),IC50
1,N[C@@H](CSC(c1ccccc1)(c1ccccc1)c1ccccc1)C(=O)O [S-TRITYL-L-CYSTEINE],> 5.12 µM

# System: SW 954;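 also: growth inhibition of SW954 human cancer cells, read out as cell viability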
# Assay: cells
# Assay type: functional, cell-based, Homo sapiens
# Details: Homo sapiens, SW 954
# Description: SANGER: Inhibition of human SW954 cell growth in a cell viability assay.
row,Structure (SMILES),IC50
1,N[C@@H](CSC(c1ccccc1)(c1ccccc1)c1ccccc1)C(=O)O [S-TRITYL-L-CYSTEINE],1.88 µM

# System: NCI-H23;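 also: cell viability assay measuring growth inhibition of NCI-H23 cells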
# Assay: cells
# Assay type: functional, cell-based, Homo sapiens
# Details: Homo sapiens, NCI-H23
# Description: SANGER: Inhibition of human NCI-H23 cell growth in a cell viability assay.
row,Structure (SMILES),IC50
1,N[C@@H](CSC(c1ccccc1)(c1ccccc1)c1ccccc1)C(=O)O [S-TRITYL-L-CYSTEINE],> 5.12 µM

# System: MLMA;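 also: growth inhibition of MLMA cells (human), determined through a cell viability readout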
# Assay: cells
# Assay type: functional, cell-based, Homo sapiens
# Details: Homo sapiens, MLMA
# Description: SANGER: Inhibition of human MLMA cell growth in a cell viability assay.
row,Structure (SMILES),IC50
1,N[C@@H](CSC(c1ccccc1)(c1ccccc1)c1ccccc1)C(=O)O [S-TRITYL-L-CYSTEINE],4.62 µM

# System: MEG-01;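 also: growth inhibition of MEG-01 cells, read out by a cell viability assay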
# Assay: cells
# Assay type: functional, cell-based, Homo sapiens
# Details: Homo sapiens, MEG-01
# Description: SANGER: Inhibition of human MEG-01 cell growth in a cell viability assay.
row,Structure (SMILES),IC50
1,N[C@@H](CSC(c1ccccc1)(c1ccccc1)c1ccccc1)C(=O)O [S-TRITYL-L-CYSTEINE],1.8 µM

# System: K562
# Assay: cells
# Assay type: functional, cell-based, Homo sapiens
# Details: Homo sapiens, K562
# Description: SANGER: Inhibition of human K-562 cell growth in a cell viability assay.
row,Structure (SMILES),IC50
1,N[C@@H](CSC(c1ccccc1)(c1ccccc1)c1ccccc1)C(=O)O [S-TRITYL-L-CYSTEINE],1.54 µM

# System: NCI-H209;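 also: growth inhibition of human NCI-H209 cells, measured by a cell viability assay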
# Assay: cells
# Assay type: functional, cell-based, Homo sapiens
# Details: Homo sapiens, NCI-H209
# Description: SANGER: Inhibition of human NCI-H209 cell growth in a cell viability assay.
row,Structure (SMILES),IC50
1,N[C@@H](CSC(c1ccccc1)(c1ccccc1)c1ccccc1)C(=O)O [S-TRITYL-L-CYSTEINE],4.75 µM

# System: KURAMOCHI;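 also: growth inhibition of KURAMOCHI cells, read out with a cell viability assay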
# Assay: cells
# Assay type: functional, cell-based, Homo sapiens
# Details: Homo sapiens, KURAMOCHI
# Description: SANGER: Inhibition of human KURAMOCHI cell growth in a cell viability assay.
row,Structure (SMILES),IC50
1,N[C@@H](CSC(c1ccccc1)(c1ccccc1)c1ccccc1)C(=O)O [S-TRITYL-L-CYSTEINE],> 5.12 µM

# System: NTERA-2-cl-D1;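 also: inhibition of cell growth, measured with a cell viability assay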
# Assay: cells
# Assay type: functional, cell-based, Homo sapiens
# Details: Homo sapiens, NTERA-2-cl-D1
# Description: SANGER: Inhibition of human NTERA-S-cl-D1 cell growth in a cell viability assay.
row,Structure (SMILES),IC50
1,N[C@@H](CSC(c1ccccc1)(c1ccccc1)c1ccccc1)C(=O)O [S-TRITYL-L-CYSTEINE],> 5.12 µM

# System: HL-60;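 also: growth inhibition of human HL-60 cells, read out with a cell viability assay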
# Assay: cells
# Assay type: functional, cell-based, Homo sapiens
# Details: Homo sapiens, HL-60
# Description: SANGER: Inhibition of human HL-60 cell growth in a cell viability assay.
row,Structure (SMILES),IC50
1,N[C@@H](CSC(c1ccccc1)(c1ccccc1)c1ccccc1)C(=O)O [S-TRITYL-L-CYSTEINE],> 5.12 µM

# System: A4-Fuk;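 also: growth inhibition of A4-Fuk cells, read out by a cell viability assay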
# Assay: cells
# Assay type: functional, cell-based, Homo sapiens
# Details: Homo sapiens, A4-Fuk
# Description: SANGER: Inhibition of human A4-Fuk cell growth in a cell viability assay.
row,Structure (SMILES),IC50
1,N[C@@H](CSC(c1ccccc1)(c1ccccc1)c1ccccc1)C(=O)O [S-TRITYL-L-CYSTEINE],0.453 µM

# System: NCI-H1838;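 also: growth inhibition of NCI-H1838 cells, determined with a cell viability readout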
# Assay: cells
# Assay type: functional, cell-based, Homo sapiens
# Details: Homo sapiens, NCI-H1838
# Description: SANGER: Inhibition of human NCI-H1838 cell growth in a cell viability assay.
row,Structure (SMILES),IC50
1,N[C@@H](CSC(c1ccccc1)(c1ccccc1)c1ccccc1)C(=O)O [S-TRITYL-L-CYSTEINE],> 5.12 µM

# System: RCC10RGB;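 also: growth inhibition of human RCC10RGB cells, read out by a cell viability assay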
# Assay: cells
# Assay type: functional, cell-based, Homo sapiens
# Details: Homo sapiens, RCC10RGB
# Description: SANGER: Inhibition of human RCC10RGB cell growth in a cell viability assay.
row,Structure (SMILES),IC50
1,N[C@@H](CSC(c1ccccc1)(c1ccccc1)c1ccccc1)C(=O)O [S-TRITYL-L-CYSTEINE],> 5.12 µM

# System: ES8;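 also: growth inhibition of human ES8 cells, read out with a cell viability assay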
# Assay: cells
# Assay type: functional, cell-based, Homo sapiens
# Details: Homo sapiens, ES8
# Description: SANGER: Inhibition of human ES8 cell growth in a cell viability assay.
row,Structure (SMILES),IC50
1,N[C@@H](CSC(c1ccccc1)(c1ccccc1)c1ccccc1)C(=O)O [S-TRITYL-L-CYSTEINE],0.432 µM

# System: EKVX;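 also: growth inhibition of human EKVX cells, read out with a cell viability assay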
# Assay: cells
# Assay type: functional, cell-based, Homo sapiens
# Details: Homo sapiens, EKVX
# Description: SANGER: Inhibition of human EKVX cell growth in a cell viability assay.
row,Structure (SMILES),IC50
1,N[C@@H](CSC(c1ccccc1)(c1ccccc1)c1ccccc1)C(=O)O [S-TRITYL-L-CYSTEINE],> 5.12 µM

# System: LB2241-RCC;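 also: cell viability assay measuring how strongly the cultured human renal carcinoma line is prevented from growing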
# Assay: cells
# Assay type: functional, cell-based, Homo sapiens
# Details: Homo sapiens, LB2241-RCC
# Description: SANGER: Inhibition of human LB2241-RCC cell growth in a cell viability assay.
row,Structure (SMILES),IC50
1,N[C@@H](CSC(c1ccccc1)(c1ccccc1)c1ccccc1)C(=O)O [S-TRITYL-L-CYSTEINE],> 5.12 µM

# System: COR-L88;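 also: growth inhibition of COR-L88 cells, read out with a cell viability assay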
# Assay: cells
# Assay type: functional, cell-based, Homo sapiens
# Details: Homo sapiens, COR-L88
# Description: SANGER: Inhibition of human COR-L88 cell growth in a cell viability assay.
row,Structure (SMILES),IC50
1,N[C@@H](CSC(c1ccccc1)(c1ccccc1)c1ccccc1)C(=O)O [S-TRITYL-L-CYSTEINE],> 5.12 µM

# System: KM-H2;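 also: growth inhibition of KM-H2 cells, read out by a cell viability assay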
# Assay: cells
# Assay type: functional, cell-based, Homo sapiens
# Details: Homo sapiens, KM-H2
# Description: SANGER: Inhibition of human KM-H2 cell growth in a cell viability assay.
row,Structure (SMILES),IC50
1,N[C@@H](CSC(c1ccccc1)(c1ccccc1)c1ccccc1)C(=O)O [S-TRITYL-L-CYSTEINE],2.9 µM

# System: DJM-1;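 also: growth inhibition of human DJM-1 cells, read out by a cell viability assay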
# Assay: cells
# Assay type: functional, cell-based, Homo sapiens
# Details: Homo sapiens, DJM-1
# Description: SANGER: Inhibition of human DJM-1 cell growth in a cell viability assay.
row,Structure (SMILES),IC50
1,N[C@@H](CSC(c1ccccc1)(c1ccccc1)c1ccccc1)C(=O)O [S-TRITYL-L-CYSTEINE],> 5.12 µM

# System: NCI-H1770;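 also: growth inhibition of NCI-H1770 cells determined with a viability readout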
# Assay: cells
# Assay type: functional, cell-based, Homo sapiens
# Details: Homo sapiens, NCI-H1770
# Description: SANGER: Inhibition of human NCI-H1770 cell growth in a cell viability assay.
row,Structure (SMILES),IC50
1,N[C@@H](CSC(c1ccccc1)(c1ccccc1)c1ccccc1)C(=O)O [S-TRITYL-L-CYSTEINE],> 5.12 µM

# System: Mo
# Assay: cells
# Assay type: functional, cell-based, Homo sapiens
# Details: Homo sapiens, Mo
# Description: SANGER: Inhibition of human Mo-T cell growth in a cell viability assay.
row,Structure (SMILES),IC50
1,N[C@@H](CSC(c1ccccc1)(c1ccccc1)c1ccccc1)C(=O)O [S-TRITYL-L-CYSTEINE],> 5.12 µM

# System: ES5;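 also: growth inhibition of human ES5 cells, read out by a cell viability assay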
# Assay: cells
# Assay type: functional, cell-based, Homo sapiens
# Details: Homo sapiens, ES5
# Description: SANGER: Inhibition of human ES5 cell growth in a cell viability assay.
row,Structure (SMILES),IC50
1,N[C@@H](CSC(c1ccccc1)(c1ccccc1)c1ccccc1)C(=O)O [S-TRITYL-L-CYSTEINE],> 5.12 µM

# System: HD-MY-Z;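 also: growth inhibition of HD-MY-Z cells, read out with a cell viability assay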
# Assay: cells
# Assay type: functional, cell-based, Homo sapiens
# Details: Homo sapiens, HD-MY-Z
# Description: SANGER: Inhibition of human HD-MY-Z cell growth in a cell viability assay.
row,Structure (SMILES),IC50
1,N[C@@H](CSC(c1ccccc1)(c1ccccc1)c1ccccc1)C(=O)O [S-TRITYL-L-CYSTEINE],2.24 µM

# System: PSN1;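 also: suppression of growth of human PSN1 cells, read out by a cell viability assay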
# Assay: cells
# Assay type: functional, cell-based, Homo sapiens
# Details: Homo sapiens, PSN1
# Description: SANGER: Inhibition of human PSN1 cell growth in a cell viability assay.
row,Structure (SMILES),IC50
1,N[C@@H](CSC(c1ccccc1)(c1ccccc1)c1ccccc1)C(=O)O [S-TRITYL-L-CYSTEINE],1.49 µM

# System: OS-RC-2;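 also: growth inhibition of human OS-RC-2 cells, measured by a cell viability assay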
# Assay: cells
# Assay type: functional, cell-based, Homo sapiens
# Details: Homo sapiens, OS-RC-2
# Description: SANGER: Inhibition of human OS-RC-2 cell growth in a cell viability assay.
row,Structure (SMILES),IC50
1,N[C@@H](CSC(c1ccccc1)(c1ccccc1)c1ccccc1)C(=O)O [S-TRITYL-L-CYSTEINE],> 5.12 µM

# System: RKO;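 also: growth inhibition of human RKO cells, read out with a cell viability assay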
# Assay: cells
# Assay type: functional, cell-based, Homo sapiens
# Details: Homo sapiens, RKO
# Description: SANGER: Inhibition of human RKO cell growth in a cell viability assay.
row,Structure (SMILES),IC50
1,N[C@@H](CSC(c1ccccc1)(c1ccccc1)c1ccccc1)C(=O)O [S-TRITYL-L-CYSTEINE],0.677 µM

# System: HCC1187;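 also: growth inhibition of HCC1187 cells, read out with a cell viability assay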
# Assay: cells
# Assay type: functional, cell-based, Homo sapiens
# Details: Homo sapiens, HCC1187
# Description: SANGER: Inhibition of human HCC1187 cell growth in a cell viability assay.
row,Structure (SMILES),IC50
1,N[C@@H](CSC(c1ccccc1)(c1ccccc1)c1ccccc1)C(=O)O [S-TRITYL-L-CYSTEINE],> 5.12 µM

# System: HCE-4;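 also: cell viability assay measuring inhibition of growth in the human HCE-4 cell line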
# Assay: cells
# Assay type: functional, cell-based, Homo sapiens
# Details: Homo sapiens, HCE-4
# Description: SANGER: Inhibition of human HCE-4 cell growth in a cell viability assay.
row,Structure (SMILES),IC50
1,N[C@@H](CSC(c1ccccc1)(c1ccccc1)c1ccccc1)C(=O)O [S-TRITYL-L-CYSTEINE],0.469 µM

# System: MMAC-SF;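 also: growth inhibition of human MMAC-SF cells, read out with a cell viability assay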
# Assay: cells
# Assay type: functional, cell-based, Homo sapiens
# Details: Homo sapiens, MMAC-SF
# Description: SANGER: Inhibition of human MMAC-SF cell growth in a cell viability assay.
row,Structure (SMILES),IC50
1,N[C@@H](CSC(c1ccccc1)(c1ccccc1)c1ccccc1)C(=O)O [S-TRITYL-L-CYSTEINE],2.69 µM

# System: MOLT-4;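 also: growth inhibition of MOLT-4 cells, determined with a cell viability readout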
# Assay: cells
# Assay type: functional, cell-based, Homo sapiens
# Details: Homo sapiens, MOLT-4
# Description: SANGER: Inhibition of human MOLT-4 cell growth in a cell viability assay.
row,Structure (SMILES),IC50
1,N[C@@H](CSC(c1ccccc1)(c1ccccc1)c1ccccc1)C(=O)O [S-TRITYL-L-CYSTEINE],4.29 µM

# System: SF-539;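 also: Read-out is a cell viability assay, with IC50 reflecting inhibition of cell growth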
# Assay: cells
# Assay type: functional, cell-based, Homo sapiens
# Details: Homo sapiens, SF-539
# Description: SANGER: Inhibition of human SF539 cell growth in a cell viability assay.
row,Structure (SMILES),IC50
1,N[C@@H](CSC(c1ccccc1)(c1ccccc1)c1ccccc1)C(=O)O [S-TRITYL-L-CYSTEINE],2.06 µM

# System: LU-139
# Assay: cells
# Assay type: functional, cell-based, Homo sapiens
# Details: Homo sapiens, LU-139
# Description: SANGER: Inhibition of human LU-139 cell growth in a cell viability assay.
row,Structure (SMILES),IC50
1,N[C@@H](CSC(c1ccccc1)(c1ccccc1)c1ccccc1)C(=O)O [S-TRITYL-L-CYSTEINE],2.91 µM

# System: CW-2;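 also: growth inhibition of CW-2 cells, read out by a cell viability assay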
# Assay: cells
# Assay type: functional, cell-based, Homo sapiens
# Details: Homo sapiens, CW-2
# Description: SANGER: Inhibition of human CW-2 cell growth in a cell viability assay.
row,Structure (SMILES),IC50
1,N[C@@H](CSC(c1ccccc1)(c1ccccc1)c1ccccc1)C(=O)O [S-TRITYL-L-CYSTEINE],> 5.12 µM

# System: COLO-320-HSR;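 also: growth inhibition of COLO-320-HSR cells, determined with a cell viability assay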
# Assay: cells
# Assay type: functional, cell-based, Homo sapiens
# Details: Homo sapiens, COLO-320-HSR
# Description: SANGER: Inhibition of human COLO-320-HSR cell growth in a cell viability assay.
row,Structure (SMILES),IC50
1,N[C@@H](CSC(c1ccccc1)(c1ccccc1)c1ccccc1)C(=O)O [S-TRITYL-L-CYSTEINE],0.894 µM

# System: A388;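 also: growth inhibition of human A388 cells, read out with a cell viability assay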
# Assay: cells
# Assay type: functional, cell-based, Homo sapiens
# Details: Homo sapiens, A388
# Description: SANGER: Inhibition of human A388 cell growth in a cell viability assay.
row,Structure (SMILES),IC50
1,N[C@@H](CSC(c1ccccc1)(c1ccccc1)c1ccccc1)C(=O)O [S-TRITYL-L-CYSTEINE],0.62 µM

# System: KINGS-1;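 also: cell viability assay measuring suppression of KINGS-1 cell growth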
# Assay: cells
# Assay type: functional, cell-based, Homo sapiens
# Details: Homo sapiens, KINGS-1
# Description: SANGER: Inhibition of human KINGS-1 cell growth in a cell viability assay.
row,Structure (SMILES),IC50
1,N[C@@H](CSC(c1ccccc1)(c1ccccc1)c1ccccc1)C(=O)O [S-TRITYL-L-CYSTEINE],2.16 µM

# System: NOS-1;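 also: growth inhibition of the human NOS-1 cell line, read out with a cell viability assay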
# Assay: cells
# Assay type: functional, cell-based, Homo sapiens
# Details: Homo sapiens, NOS-1
# Description: SANGER: Inhibition of human NOS-1 cell growth in a cell viability assay.
row,Structure (SMILES),IC50
1,N[C@@H](CSC(c1ccccc1)(c1ccccc1)c1ccccc1)C(=O)O [S-TRITYL-L-CYSTEINE],0.97 µM

# System: LU-134-A
# Assay: cells
# Assay type: functional, cell-based, Homo sapiens
# Details: Homo sapiens, LU-134-A
# Description: SANGER: Inhibition of human LU-134-A cell growth in a cell viability assay.
row,Structure (SMILES),IC50
1,N[C@@H](CSC(c1ccccc1)(c1ccccc1)c1ccccc1)C(=O)O [S-TRITYL-L-CYSTEINE],4.34 µM

# System: LB373-MEL-D;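 also: growth inhibition of the cell line, read out in a cell viability assay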
# Assay: cells
# Assay type: functional, cell-based, Homo sapiens
# Details: Homo sapiens, LB373-MEL-D
# Description: SANGER: Inhibition of human LB373-MEL-D cell growth in a cell viability assay.
row,Structure (SMILES),IC50
1,N[C@@H](CSC(c1ccccc1)(c1ccccc1)c1ccccc1)C(=O)O [S-TRITYL-L-CYSTEINE],2.84 µM

# System: TK-10;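 also: growth inhibition of TK-10 cells, read out in a cell viability assay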
# Assay: cells
# Assay type: functional, cell-based, Homo sapiens
# Details: Homo sapiens, TK-10
# Description: SANGER: Inhibition of human TK10 cell growth in a cell viability assay.
row,Structure (SMILES),IC50
1,N[C@@H](CSC(c1ccccc1)(c1ccccc1)c1ccccc1)C(=O)O [S-TRITYL-L-CYSTEINE],> 5.12 µM

# System: EW-16;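 also: growth inhibition of human EW-16 cells, read out as cell viability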
# Assay: cells
# Assay type: functional, cell-based, Homo sapiens
# Details: Homo sapiens, EW-16
# Description: SANGER: Inhibition of human EW-16 cell growth in a cell viability assay.
row,Structure (SMILES),IC50
1,N[C@@H](CSC(c1ccccc1)(c1ccccc1)c1ccccc1)C(=O)O [S-TRITYL-L-CYSTEINE],1.62 µM

# System: KG-1;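 also: growth inhibition of KG-1 cells, read out by a cell viability assay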
# Assay: cells
# Assay type: functional, cell-based, Homo sapiens
# Details: Homo sapiens, KG-1
# Description: SANGER: Inhibition of human KG-1 cell growth in a cell viability assay.
row,Structure (SMILES),IC50
1,N[C@@H](CSC(c1ccccc1)(c1ccccc1)c1ccccc1)C(=O)O [S-TRITYL-L-CYSTEINE],> 5.12 µM

# System: SHP77;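 also: growth inhibition of human SHP-77 cells measured by a cell viability assay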
# Assay: cells
# Assay type: functional, cell-based, Homo sapiens, SHP-77
# Details: Homo sapiens, SHP77
# Description: SANGER: Inhibition of human SHP-77 cell growth in a cell viability assay.
row,Structure (SMILES),IC50
1,N[C@@H](CSC(c1ccccc1)(c1ccccc1)c1ccccc1)C(=O)O [S-TRITYL-L-CYSTEINE],> 5.12 µM

# System: KE-37;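 also: growth inhibition of KE-37 cells, read out with a cell viability assay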
# Assay: cells
# Assay type: functional, cell-based, Homo sapiens
# Details: Homo sapiens, KE-37
# Description: SANGER: Inhibition of human KE-37 cell growth in a cell viability assay.
row,Structure (SMILES),IC50
1,N[C@@H](CSC(c1ccccc1)(c1ccccc1)c1ccccc1)C(=O)O [S-TRITYL-L-CYSTEINE],0.43 µM

# System: NCI-H1155;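 also: cell growth inhibition measured by a viability assay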
# Assay: cells
# Assay type: functional, cell-based, Homo sapiens
# Details: Homo sapiens, NCI-H1155
# Description: SANGER: Inhibition of human NCI-H1155 cell growth in a cell viability assay.
row,Structure (SMILES),IC50
1,N[C@@H](CSC(c1ccccc1)(c1ccccc1)c1ccccc1)C(=O)O [S-TRITYL-L-CYSTEINE],3.8 µM

# System: MC116;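 also: growth inhibition of MC116 cells, read out with a cell viability assay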
# Assay: cells
# Assay type: functional, cell-based, Homo sapiens
# Details: Homo sapiens, MC116
# Description: SANGER: Inhibition of human MC116 cell growth in a cell viability assay.
row,Structure (SMILES),IC50
1,N[C@@H](CSC(c1ccccc1)(c1ccccc1)c1ccccc1)C(=O)O [S-TRITYL-L-CYSTEINE],0.709 µM
